Measured values: ChEMBL document CHEMBL5500412, “Discovery of Highly Selective, Potent, Covalent, and Orally Bioavailable Factor XIIa Inhibitors for the Treatment of Thrombo-Inflammation” (J Med Chem, 2024)
Calls of active or inactive are those of the source. The rule behind the calls is not given here.

Experiments:
[1] = molecular target: T1, Coagulation factor XII (Homo sapiens) (UniProt P00748); assay: Inhibition of FXIIa (unknown origin) using H-D-Pro-Phe-Arg-pNA as substrate at 500 nM incubated for 20 mins followed by substrate addition by spectrophotometric analysis relative to control
T1 sequence (whole entry): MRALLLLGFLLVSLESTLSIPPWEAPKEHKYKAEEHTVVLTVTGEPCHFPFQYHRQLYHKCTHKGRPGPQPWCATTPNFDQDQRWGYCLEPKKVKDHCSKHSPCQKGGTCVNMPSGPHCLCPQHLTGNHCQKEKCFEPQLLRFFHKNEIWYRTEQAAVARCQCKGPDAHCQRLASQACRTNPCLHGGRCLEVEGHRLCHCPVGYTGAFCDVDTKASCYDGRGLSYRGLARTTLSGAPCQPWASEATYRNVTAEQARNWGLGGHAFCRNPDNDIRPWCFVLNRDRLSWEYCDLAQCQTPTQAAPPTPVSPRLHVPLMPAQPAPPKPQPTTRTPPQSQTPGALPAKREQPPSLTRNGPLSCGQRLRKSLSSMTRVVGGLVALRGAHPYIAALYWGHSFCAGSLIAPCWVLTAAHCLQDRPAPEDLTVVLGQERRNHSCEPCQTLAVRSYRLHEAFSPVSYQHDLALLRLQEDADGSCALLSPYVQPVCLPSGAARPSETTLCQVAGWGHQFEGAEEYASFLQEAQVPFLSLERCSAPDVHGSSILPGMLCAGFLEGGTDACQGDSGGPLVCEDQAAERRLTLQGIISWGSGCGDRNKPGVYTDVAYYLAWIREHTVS

Coagulation factor XII [2] = molecular target: T2, Coagulation factor XII (Homo sapiens, UniProt P00748); assay: Inhibition of FXIIa (unknown origin) using H-D-Pro-Phe-Arg-pNA as substrate incubated for 20 mins followed by substrate addition by spectrophotometric analysis
T2 sequence (P00748 whole entry): T1 sequence (whole entry)

Coagulation factor XII [3] = molecular target: T2, Coagulation factor XII; assay: Inhibition of human FXIIa (unknown origin)
Prothrombin = Prothrombin (Homo sapiens, UniProt P00734); assay: Inhibition of thrombin (unknown origin) using H-D-Phe-Pip-Arg-pNA-2HCl as substrate incubated for 20 mins followed by substrate addition by spectrophotometric analysis
Plasma kallikrein = Plasma kallikrein (Homo sapiens, UniProt P03952); assay: Inhibition of PKal (unknown origin) using H-D-Pro-Phe-Arg-pNA-2HCl as substrate incubated for 20 mins followed by substrate addition by spectrophotometric analysis
Sequence of Plasma kallikrein (P03952 20-390 limits assumed): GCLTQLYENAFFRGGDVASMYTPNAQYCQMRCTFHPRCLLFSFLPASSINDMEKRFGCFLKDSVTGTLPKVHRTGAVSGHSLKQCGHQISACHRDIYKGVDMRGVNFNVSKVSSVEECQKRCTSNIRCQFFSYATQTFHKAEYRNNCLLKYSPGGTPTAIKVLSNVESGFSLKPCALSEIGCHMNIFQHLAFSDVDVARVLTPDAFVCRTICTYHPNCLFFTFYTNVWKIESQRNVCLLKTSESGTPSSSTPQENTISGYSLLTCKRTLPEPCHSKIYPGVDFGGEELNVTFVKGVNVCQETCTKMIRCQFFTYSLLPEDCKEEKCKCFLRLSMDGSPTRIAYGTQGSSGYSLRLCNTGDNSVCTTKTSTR
Sequence of Plasma kallikrein (P03952 391-638 limits assumed): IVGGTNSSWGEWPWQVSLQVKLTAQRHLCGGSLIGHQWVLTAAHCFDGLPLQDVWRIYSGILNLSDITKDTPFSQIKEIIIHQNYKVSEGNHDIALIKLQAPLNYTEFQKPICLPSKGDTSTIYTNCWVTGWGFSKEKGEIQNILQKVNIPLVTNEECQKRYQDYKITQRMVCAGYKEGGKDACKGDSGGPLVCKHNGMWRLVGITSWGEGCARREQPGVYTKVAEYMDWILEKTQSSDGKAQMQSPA

Coagulation factor XI = Coagulation factor XI (Homo sapiens, UniProt P03951); assay: Inhibition of FXIa (unknown origin) using p-Glu-Pro-Arg-pNA.HCl as chromogenic substrate incubated for 20 mins followed by substrate addition by spectrophotometric analysis
Sequence of Coagulation factor XI (P03951 19-387 limits assumed): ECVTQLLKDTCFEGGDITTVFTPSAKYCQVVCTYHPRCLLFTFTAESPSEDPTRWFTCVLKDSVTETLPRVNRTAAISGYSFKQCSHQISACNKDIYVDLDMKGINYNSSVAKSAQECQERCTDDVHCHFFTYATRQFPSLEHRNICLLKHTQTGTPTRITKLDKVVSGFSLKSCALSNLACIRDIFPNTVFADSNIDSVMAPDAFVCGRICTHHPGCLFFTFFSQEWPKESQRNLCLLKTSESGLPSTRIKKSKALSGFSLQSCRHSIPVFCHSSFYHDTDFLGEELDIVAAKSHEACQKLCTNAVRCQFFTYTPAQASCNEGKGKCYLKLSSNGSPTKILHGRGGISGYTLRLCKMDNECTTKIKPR
Sequence of Coagulation factor XI (P03951 388-625 limits assumed): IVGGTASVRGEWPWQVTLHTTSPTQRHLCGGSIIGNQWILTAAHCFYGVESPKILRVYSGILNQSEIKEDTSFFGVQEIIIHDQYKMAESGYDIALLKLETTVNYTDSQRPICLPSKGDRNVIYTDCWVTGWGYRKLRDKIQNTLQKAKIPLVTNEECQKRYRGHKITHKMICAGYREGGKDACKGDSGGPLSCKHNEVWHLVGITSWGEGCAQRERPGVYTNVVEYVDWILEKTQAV

Coagulation factor X = Coagulation factor X (Homo sapiens, UniProt P00742); assay: Inhibition of FXa (unknown origin) using Z-D-Arg-Gly-Arg-pNA.2HCl as chromogenic substrate incubated for 20 mins followed by substrate addition by spectrophotometric analysis
Sequence of Coagulation factor X (P00742 41-179 limits assumed): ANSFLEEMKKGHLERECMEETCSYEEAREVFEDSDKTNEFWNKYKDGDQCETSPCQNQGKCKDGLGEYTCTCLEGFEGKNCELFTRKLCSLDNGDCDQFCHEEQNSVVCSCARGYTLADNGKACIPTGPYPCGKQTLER
Sequence of Coagulation factor X (P00742 235-488 limits assumed): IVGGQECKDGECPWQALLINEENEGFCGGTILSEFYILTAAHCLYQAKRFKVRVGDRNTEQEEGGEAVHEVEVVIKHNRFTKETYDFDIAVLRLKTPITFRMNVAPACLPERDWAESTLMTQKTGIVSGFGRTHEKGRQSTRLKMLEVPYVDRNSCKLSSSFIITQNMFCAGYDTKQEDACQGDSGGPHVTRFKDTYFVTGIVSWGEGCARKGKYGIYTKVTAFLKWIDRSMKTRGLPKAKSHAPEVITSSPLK

Trypsin = Trypsin (Homo sapiens, UniProt P07477+P07478+P35030); assay: Inhibition of trypsin (unknown origin) using Bz-lle-Glu(gamma-OR)-Gly-Arg-pNA.HCl as chromogenic substrate incubated for 20 mins followed by substrate addition by spectrophotometric analysis; assay type: protein assay
Chymotrypsin = Chymotrypsin (Homo sapiens, UniProt Q99895+P17538+P40313+Q6GPI1); assay: Inhibition of Chymotrypsin (unknown origin) using N-Suc-Ala-Ala-Pro-Phe-pNA as chromogenic substrate incubated for 20 mins followed by substrate addition by spectrophotometric analysis; assay type: protein assay
Plasminogen = Plasminogen (Homo sapiens, UniProt P00747); assay: Inhibition of plasmin (unknown origin) using PyroGlu-Phe-Lys-pNA.HCl as chromogenic substrate incubated for 20 mins followed by substrate addition by spectrophotometric analysis
Sequence of Plasminogen (P00747 97-580 limits assumed): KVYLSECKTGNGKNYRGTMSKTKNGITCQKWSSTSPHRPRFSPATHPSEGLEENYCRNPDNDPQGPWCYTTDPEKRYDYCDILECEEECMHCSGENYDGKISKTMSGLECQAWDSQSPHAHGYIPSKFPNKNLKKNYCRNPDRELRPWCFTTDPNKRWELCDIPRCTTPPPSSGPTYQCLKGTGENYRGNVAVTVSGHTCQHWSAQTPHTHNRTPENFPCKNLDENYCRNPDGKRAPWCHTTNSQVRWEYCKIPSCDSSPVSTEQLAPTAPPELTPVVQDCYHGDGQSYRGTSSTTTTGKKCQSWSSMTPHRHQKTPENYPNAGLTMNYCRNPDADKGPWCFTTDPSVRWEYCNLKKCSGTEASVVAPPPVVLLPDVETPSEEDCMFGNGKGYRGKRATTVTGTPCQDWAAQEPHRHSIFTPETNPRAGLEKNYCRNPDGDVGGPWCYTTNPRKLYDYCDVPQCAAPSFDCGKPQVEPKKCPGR
Sequence of Plasminogen (P00747 581-810 limits assumed): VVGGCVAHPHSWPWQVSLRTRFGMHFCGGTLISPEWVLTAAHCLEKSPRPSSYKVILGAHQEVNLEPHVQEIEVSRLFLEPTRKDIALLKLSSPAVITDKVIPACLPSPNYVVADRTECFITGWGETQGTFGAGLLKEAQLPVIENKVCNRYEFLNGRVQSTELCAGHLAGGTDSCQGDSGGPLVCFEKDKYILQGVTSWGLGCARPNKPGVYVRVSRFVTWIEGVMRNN

[4] = molecular target: Tissue-type plasminogen activator (Homo sapiens, UniProt P00750); assay: Inhibition of tPA (unknown origin) using H-D-lle-Pro-Arg-pNA-2HCl as chromogenic substrate incubated for 20 mins followed by substrate addition by spectrophotometric analysis
Sequence of Tissue-type plasminogen activator (P00750 whole entry): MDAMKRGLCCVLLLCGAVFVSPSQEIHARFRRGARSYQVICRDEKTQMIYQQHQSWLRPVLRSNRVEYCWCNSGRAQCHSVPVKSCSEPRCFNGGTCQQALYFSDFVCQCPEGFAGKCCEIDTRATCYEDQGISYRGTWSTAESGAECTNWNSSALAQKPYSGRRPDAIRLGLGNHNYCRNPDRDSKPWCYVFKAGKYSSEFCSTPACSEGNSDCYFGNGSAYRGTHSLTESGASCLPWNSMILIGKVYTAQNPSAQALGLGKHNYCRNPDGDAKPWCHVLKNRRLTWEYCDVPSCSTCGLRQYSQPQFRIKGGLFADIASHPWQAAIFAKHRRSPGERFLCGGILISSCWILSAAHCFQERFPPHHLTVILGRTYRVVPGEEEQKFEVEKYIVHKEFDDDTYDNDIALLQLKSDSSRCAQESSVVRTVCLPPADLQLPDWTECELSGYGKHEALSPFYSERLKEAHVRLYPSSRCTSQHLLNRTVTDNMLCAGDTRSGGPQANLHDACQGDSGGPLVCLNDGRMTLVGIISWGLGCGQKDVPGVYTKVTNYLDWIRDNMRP

[5] = Selectivity index, ratio of IC50 for thrombin (unknown origin) to IC50 for FXIIa (unknown origin)
[6] = Selectivity index, ratio of IC50 for PKal (unknown origin) to IC50 for FXIIa (unknown origin)
[7] = Selectivity index, ratio of IC50 for FXIa (unknown origin) to IC50 for FXIIa (unknown origin)
[8] = Selectivity index, ratio of IC50 for FXa (unknown origin) to IC50 for FXIIa (unknown origin)
[9] = Selectivity index, ratio of IC50 for trypsin (unknown origin) to IC50 for FXIIa (unknown origin)
[10] = Selectivity index, ratio of IC50 for chymotrypsin (unknown origin) to IC50 for FXIIa (unknown origin)
[11] = Selectivity index, ratio of IC50 for plasmin (unknown origin) to IC50 for FXIIa (unknown origin)
[12] = Selectivity index, ratio of IC50 for tPA (unknown origin) to IC50 for FXIIa (unknown origin)
RAW264.7 [13] = assay: Antiinflammatory activity in mouse RAW264.7 cells assessed as inhibition of LPS-induced IL-1 beta expression at 10 uM preincubated for 12 hrs followed by LPS stimulation and measured after 12 hrs by real time quantitative RT-PCR assay; assay type: functional, cell-based; settings: time 24.0 hrs
RAW264.7 [14] = assay: Antiinflammatory activity in mouse RAW264.7 cells assessed as inhibition of LPS-induced IL-6 expression at 10 uM preincubated for 12 hrs followed by LPS stimulation and measured after 12 hrs by real time quantitative RT-PCR assay; assay type: functional, cell-based; settings: time 24.0 hrs
Plasma [15] = assay: Anticoagulant activity in human plasma assessed as prolongation of activated partial thromboplastin time at 300 uM incubated for 2 mins by aPTT reagent based assay relative to control; assay type: functional
Plasma [16] = assay: Anticoagulant activity in human plasma assessed as prolongation of […] time at 300 uM incubated for 2 mins by PT reagent based assay; assay type: functional, cell-free
[17] = Toxicity in BALB/c mouse assessed as prolongation of bleeding time at 30 mg/kg, po measured after 90 mins; assay type: organism-based; settings: in vivo, 1.5 h

CC(C)N1CCN(c2ccc(C(=O)n3nc(-c4ccc(Cl)cn4)nc3N)cc2)CC1
inhibition [1]: 77%
IC50 (Coagulation factor XII [2]): 81 nM

Nc1nc(-c2ccccn2)nn1C(=O)c1ccc(NC(=O)c2cccc3c2OCCO3)cc1
inhibition [1]: 62%

Nc1nc(-c2ccccn2)nn1C(=O)c1ccc(NC(=O)[C@@H](CC2CCCCC2)NC2CCCCC2)cc1
inhibition [1]: 33%

COc1cc(C(=O)n2nc(-c3ccccn3)nc2N)ccc1N1CCN(C(C)C)CC1
inhibition [1]: 43%

Nc1nc(-c2ccccn2)nn1C(=O)c1ccc(N2CCN(C3CCCCC3)CC2)c2ccccc12
IC50 (Coagulation factor XII [2]): 56 nM

Cc1cc(N2CCn3c(nnc3C(F)(F)F)[C@@H]2C)ncc1CNc1cccc2c(N)nccc12
IC50 (Coagulation factor XII [3]): 10 nM

CC(C)S(=O)(=O)N1CCN(c2ccc(C(=O)n3nc(-c4ccccn4)nc3N)c3ccccc23)CC1
IC50 (Coagulation factor XII [2]): 95 nM

COCCN1CCN(c2ccc(C(=O)n3nc(-c4ccccn4)nc3N)cc2)CC1
inhibition [1]: 65%

CN1CCN(c2ccc(C(=O)n3nc(-c4ccncc4)nc3N)cc2)CC1
inhibition [1]: 71%
IC50 (Coagulation factor XII [2]): 195 nM

CC(C)C[C@@H](NC1CCCC1)C(=O)Nc1ccc(C(=O)n2nc(-c3ccccn3)nc2N)cc1
inhibition [1]: 28%

Nc1nc(-c2ccccn2)nn1C(=O)c1ccc(N2CCN(C3COC3)CC2)c2ccccc12
IC50 (Coagulation factor XII [2]): 39 nM
IC50 (Prothrombin): 20000 nM
IC50 (Plasma kallikrein): > 25000 nM
IC50 (Coagulation factor XI): > 25000 nM
IC50 (Coagulation factor X): > 25000 nM
IC50 (Trypsin): > 25000 nM
IC50 (Chymotrypsin): > 25000 nM
IC50 (Plasminogen): > 25000 nM
IC50 [4]: > 25000 nM
Ratio IC50 [5]: 830
Ratio IC50 [6]: > 640
Ratio IC50 [7]: > 640
Ratio IC50 [8]: > 640
Ratio IC50 [9]: > 640
Ratio IC50 [10]: > 640
Ratio IC50 [11]: > 640
Ratio IC50 [12]: > 640
Activity (RAW264.7 [13]): Active
Activity (RAW264.7 [14]): Active
Activity (Plasma [15]): 472%
Activity (Plasma [16]): inactive

Nc1nc(-c2ccccn2)nn1C(=O)c1ccc(N2CCN(CCO)CC2)cc1
inhibition [1]: 63%

CN(C)C(=O)N1CCN(c2ccc(C(=O)n3nc(-c4ccccn4)nc3N)c3ccccc23)CC1
IC50 (Coagulation factor XII [2]): 86 nM

Nc1nc(-c2ccccn2)nn1C(=O)c1ccc(NC(=O)c2ccccc2)cc1F
inhibition [1]: 28%

Nc1nc(-c2ccccn2)nn1C(=O)c1ccc(N2CCC3(CC2)CC3)cc1
inhibition [1]: 21%

O=C(NC[C@H]1CN(c2ccc(N3CCOCC3=O)cc2)C(=O)O1)c1ccc(Cl)s1 [RIVAROXABAN]
Activity [17]: Toxic

CN1CCN(c2cccc(C(=O)n3nc(-c4ccccn4)nc3N)c2)CC1
inhibition [1]: 21%

CN1CCN(c2ccc(C(=O)n3nc(-c4ccccn4)nc3N)cc2)CC1
inhibition [1]: 72%
IC50 (Coagulation factor XII [2]): 180 nM

Nc1nc(-c2ccccn2)nn1C(=O)c1ccc(N2CCN(C3CC3)CC2)c2ccccc12
IC50 (Coagulation factor XII [2]): 40 nM

CN(C)CCN(C)c1ccc(C(=O)n2nc(-c3ccccn3)nc2N)cc1
inhibition [1]: 72%
IC50 (Coagulation factor XII [2]): 190 nM

Nc1nccc2c(NCC34COC(COc5ccn6ccnc6c5)(C3)C4)cccc12
IC50 (Coagulation factor XII [3]): 100 nM

Nc1nc(-c2ccccn2)nn1C(=O)c1ccc(NCc2ccccc2)cc1
inhibition [1]: 39%

Cc1cc(C(=O)n2nc(-c3ccccn3)nc2N)ccc1N1CCN(C(C)C)CC1
inhibition [1]: 82%
IC50 (Coagulation factor XII [2]): 48 nM
Activity (RAW264.7 [13]): Active
Activity (RAW264.7 [14]): Active

Nc1nc(-c2ccccn2)nn1C(=O)c1ccc(NC(=O)[C@@H](Cc2ccccc2)NC2CCCCC2)cc1
inhibition [1]: 24%

CC(C)N1CCN(c2ccc(C(=O)n3nc(-c4ccccn4)nc3N)c3c2OCCO3)CC1
IC50 (Coagulation factor XII [2]): 51 nM

Nc1nc(-c2ccccn2)nn1C(=O)c1cccc(N2CCC3(CC2)OCCO3)c1
inhibition [1]: 40%

Cc1cc(C(=O)n2nc(-c3ccccn3)nc2N)cc(C)c1N1CCN(C(C)C)CC1
inhibition [1]: 28%

Nc1nc(-c2ccccn2)nn1C(=O)c1ccc(NC(=O)c2cccc3c2CCCC3)cc1
inhibition [1]: 62%

CC(C)N1CCN(c2ccc(C(=O)n3nc(-c4ccc(F)cn4)nc3N)cc2)CC1
inhibition [1]: 79%
IC50 (Coagulation factor XII [2]): 79 nM
Activity (RAW264.7 [13]): Active
Activity (RAW264.7 [14]): Active

Nc1nc(-c2ccccn2)nn1C(=O)c1ccc(N2CCC3(CC2)OCCO3)cc1
inhibition [1]: 70%
IC50 (Coagulation factor XII [2]): 202 nM

CC(C)N1CCN(c2ccc(C(=O)n3nc(-c4ccccn4)nc3N)cc2)CC1
inhibition [1]: 79%
IC50 (Coagulation factor XII [2]): 72 nM

Nc1nc(-c2ccccn2)nn1C(=O)c1ccc(NC(=O)c2ccccc2)cc1
inhibition [1]: 74%
IC50 (Coagulation factor XII [2]): 163 nM
IC50 (Prothrombin): 15700 nM
IC50 (Plasma kallikrein): > 25000 nM
IC50 (Coagulation factor XI): > 25000 nM
IC50 (Trypsin): > 5000 nM
IC50 (Chymotrypsin): > 5000 nM
IC50 (Plasminogen): > 5000 nM
IC50 [4]: > 5000 nM
Ratio IC50 [5]: 770
Ratio IC50 [6]: > 150
Ratio IC50 [7]: > 150
Ratio IC50 [8]: > 30
Ratio IC50 [9]: > 30
Ratio IC50 [10]: > 30
Ratio IC50 [11]: > 30
Ratio IC50 [12]: > 30
Activity (Plasma [15]): 35%

CN1CCC(c2ccc(C(=O)n3nc(-c4ccccn4)nc3N)cc2)CC1
inhibition [1]: 34%

Nc1nc(-c2ccccn2)nn1C(=O)c1ccc(NC(=O)c2ccccc2)c(F)c1
inhibition [1]: 9%

Nc1nc(-c2ccccn2)nn1C(=O)c1ccc(N2CCN(C3CCCC3)CC2)c2ccccc12
IC50 (Coagulation factor XII [2]): 50 nM

Nc1nc(-c2ccccn2)nn1C(=O)c1ccc(NC(=O)c2cccc3ccccc23)cc1
inhibition [1]: 60%

CN1CC=C(c2ccc(C(=O)n3nc(-c4ccccn4)nc3N)cc2)CC1
inhibition [1]: 40%

CN1CCN(c2ccc(C(=O)n3nc(-c4cccnc4)nc3N)cc2)CC1
inhibition [1]: 57%
